This is an account of results in patent publication US7189679B2, “Herbicidal 3-amino-2-thiomethylbenzoylpyrazoles” (Bayer CropScience GmbH, priority 2004, dated 2007).

Assay type in all cases: in vivo
The subject of data set [1] is Echinochloa crus-galli. The data set is described as follows: Crop plant tolerance test, action against weed plants. The following applies: 100 g/ha, visual scoring four to five weeks after application. The method, then: (§1) Seeds of mono- and dicotyledonous weed plants are placed in sandy loam in cardboard pots, covered with soil and grown in the greenhouse under good growth conditions. Two to three weeks after sowing, the test plants are treated at the three-leaf stage. The compounds according to the invention, formulated as wettable powders or as emulsifiable concentrates, are sprayed at various dosages onto the surface of the green plant parts at an application rate of 600 to 800 l of water per ha (converted). After the test plants have been left to stand in the greenhouse for 3 to 4 weeks under optimal growth conditions, the effect of the compounds is scored.
(§2) In further greenhouse experiments, seeds of barley and of monocotyledonous and dicotyledonous weed plants are placed in sandy loam, covered with soil and placed in the greenhouse until the plants have developed two to three true leaves. Then they are treated with the compounds of the formula (I) according to the invention, as described above in section 2.

In the next data set the test system is Scirpus juncoides. Described as above. The note with it: 100 g/ha, visual scoring four to five weeks after application. The method, then:
(§3) Seeds of mono- and dicotyledonous weed plants are placed in sandy loam in cardboard pots, covered with soil and grown in the greenhouse under good growth conditions. Two to three weeks after sowing, the test plants are treated at the three-leaf stage. The compounds according to the invention, formulated as wettable powders or as emulsifiable concentrates, are sprayed at various dosages onto the surface of the green plant parts at an application rate of 600 to 800 l of water per ha (converted). […]
as §2

A further data set deals with Sagittaria pygmaea. The data set is described as above. The note with it: 100 g/ha, visual scoring four to five weeks after application. How it is done:
as §3, §2

The next data set deals with Cyperus serotinus. The data set is described as above. The following applies: 100 g/ha, visual scoring four to five weeks after application. The method, then:
as §3, §2

The next data set concerns rice. Description: Crop plant tolerance test, damage to crop plant. The note with it: 100 g/ha, visual scoring four to five weeks after application.
In another data set the test system is Amaranthus retroflexus. Description: Post-emergence herbicidal action against weed plants. The note with it: three-leaf stage, 320 g/ha, scored after 3 to 4 weeks. How it is done:
as §1

For a further data set, the system named is Fallopia convolvulus. The description is as above. The following applies: three-leaf stage, 320 g/ha, scored after 3 to 4 weeks. How it is done:
as §1

Another data set relates to Stellaria media. Described as above. The note with it: three-leaf stage, 320 g/ha, scored after 3 to 4 weeks. How it is done: as §1
Another data set relates to Setaria viridis. The description is as above. The following applies: three-leaf stage, 320 g/ha, scored after 3 to 4 weeks. The method, then:
as §1

The subject of another data set is Chenopodium album. Described as above. The note with it: three-leaf stage, 320 g/ha, scored after 3 to 4 weeks. How it is done:
as §1

In data set [2] the test system is Echinochloa crus-galli. The data set is described as above. The following applies: three-leaf stage, 320 g/ha, scored after 3 to 4 weeks. How it is done:
as §1

For another data set, the system named is Sinapis arvensis. The description is as above. The following applies: three-leaf stage, 320 g/ha, scored after 3 to 4 weeks. How it is done: as §1

On to `CCn1ncc(C(=O)c2ccc(Br)c(N)c2CS(C)(=O)=O)c1O` [compound 6], for which the “action against Echinochloa crus-galli” value in the data set with Echinochloa crus-galli [1] was “at least 95%”. The “action against Scirpus juncoides” value in the data set on Scirpus juncoides is reported as “at least 95%”. For the same molecule, the “action against Sagittaria pygmaea” value in the data set on Sagittaria pygmaea was “at least 95%”. In the data set on Cyperus serotinus, the “action against Cyperus serotinus” value is on record as “at least 95%”. In addition, the “damage to the crop plant rice” value in the data set with rice is on record as “no damage”.

`CCCS(=O)(=O)Oc1c(C(=O)c2ccc(Br)c(N)c2CS(C)(=O)=O)c(C)nn1C` [compound 4]: the “activity against Amaranthus retroflexus” value in the data set on Amaranthus retroflexus is recorded as “at least 90%”. Besides, in the data set on Fallopia convolvulus, the “activity against Fallopia convolvulus” value is “at least 90%”. Also, in the data set on Stellaria media, the “activity against Stellaria media” value is on record as “at least 90%”. In addition, the “activity against Setaria viridis” value in the data set on Setaria viridis is reported as “at least 90%”. Further, in the data set on Chenopodium album, the “activity against Chenopodium album” value is listed as “at least 90%”. Besides, the “activity against Echinochloa crus-galli” value in the data set with Echinochloa crus-galli [2] is on record as “at least 90%”. In addition, the “activity against Sinapis arvensis” value in the data set with Sinapis arvensis was “at least 90%”.
